The values that follow come from paper PMC6627486, “Ipomoeassin F Binds Sec61α to Inhibit Protein Translocation” (Journal of the American Chemical Society, 2019).

For one series, the system named is HCT116. In words: cells. It counts as cell-based. Conditions: Homo sapiens, HCT-116; HCT116, 72 h, Alamar Blue, assayed separately; read-out: Cytotoxicity (IC50). The method, then: (§1) AlamarBlue Cytotoxicity Assay
(§2) MDA-MB-231, MCF-10A and HCT116. Viable cells were counted with a hemocytometer immediately before each experiment . Experiments were done in triplicate. First, 100 μL of MDA-MB-231 cells or MCF-10A cells at the density of 50,000 cells/mL was seeded in a 96-well plate (5,000 cells/well) and then incubated at 37 °C and 5% CO2 for 24 h. The compounds were dissolved in DMSO (dimethyl sulfoxide) to make drug stocks (10 mM). The stock solutions were diluted with the complete DMEM high glucose culture medium to make a series of gradient fresh working solutions right before each test. Subsequently, the cells were treated with 100 μL of the freshly made gradient working solution in a total volume of 200 μL/well for 72 h. After that, the media were discarded and 200 μL of the fresh complete medium containing 10% of AlamarBlue (resazurin) stock solution was added to each well. The plate was then incubated at 37 °C and 5% CO2 for another 3 h. Emission of each well at 620 nm was detected by a microplate reader (BioTek Synergy H1) at excitation 580 nm. For HCT116 WT and mutant lines, cells were seeded at 1000 cells/ well in complete McCoys medium. Compounds were diluted from a DMSO stock into culture medium as described above. Cells were treated for 96 h, then viability measured with AlamarBlue, detected using the conditions described but with a BMG Fluostar Optima Microplate Reader. The percentage of viability compared to the negative control (DMSO-treated cells) was determined. […]
HCT116 and HEK293T. Viable cells were counted using an automated cell counter (BioRad TC20) before each experiment. […] Emission of each well at 620 nm was detected by a microplate reader (Perkin Elmer EnSpire) at excitation 580 nm. The percentage of viability compared to the negative control (DMSO -treated cells) was determined. […]
Figure S1. […] (C) HCT116 colon carcinoma cells were treated with increasing concentrations of analogues 8, 14, 15, CT8, ipomoeassin F or carrier (0.1% DMSO) and cell viability was assessed at 72 h by the Alamar Blue assay (mean ± S.D., n = 4). […]

Series [1] deals with T1, Sec61-mediated protein translocation (Canis lupus familiaris, UniProt P38377).
T1 construct: ER microsomes derived from canine pancreas; from tissue; host or cells: canine pancreas ER microsomes (nuclease-treated)
T1 sequence (P38377 whole entry): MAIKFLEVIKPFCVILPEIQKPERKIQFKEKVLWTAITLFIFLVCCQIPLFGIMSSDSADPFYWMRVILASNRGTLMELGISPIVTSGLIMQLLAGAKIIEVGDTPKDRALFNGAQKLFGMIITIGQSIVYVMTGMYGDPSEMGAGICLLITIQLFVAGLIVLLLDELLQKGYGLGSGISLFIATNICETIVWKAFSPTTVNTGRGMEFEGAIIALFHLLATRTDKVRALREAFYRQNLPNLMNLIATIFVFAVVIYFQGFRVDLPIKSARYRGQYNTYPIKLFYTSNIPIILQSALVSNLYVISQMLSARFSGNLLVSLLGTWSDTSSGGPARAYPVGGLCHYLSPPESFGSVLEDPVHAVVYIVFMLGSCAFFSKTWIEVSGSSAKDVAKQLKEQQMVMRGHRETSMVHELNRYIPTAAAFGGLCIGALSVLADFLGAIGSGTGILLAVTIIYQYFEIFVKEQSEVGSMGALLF
T1 sequence (P60467 whole entry, further chain): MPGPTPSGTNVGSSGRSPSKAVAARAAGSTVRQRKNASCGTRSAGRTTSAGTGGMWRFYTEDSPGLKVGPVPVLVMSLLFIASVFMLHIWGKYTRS
T1 sequence (P60058 whole entry, further chain): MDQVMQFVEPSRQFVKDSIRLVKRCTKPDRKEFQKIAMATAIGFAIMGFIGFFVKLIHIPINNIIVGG
In words: In vitro translation and Sec61-dependent translocation into ER microsomes. The note with it: type II membrane protein Ii, ER microsomes. The series is classed as biochemical, canine. The text has this:
In Vitro Membrane Translocation Assays.
Unless otherwise stated, all cDNAs are of human origin and as previously described: CytB5OPG2,16 GypC,17 ppαF (Saccharomyces cerevisiae),16 ppcecAOPG2 (Hyalophora cecropia),16 PPL (Bos Taurus),16 Sec61βOPG216 and VCAM1.17 Ii encodes residues 17 to 232 of the short form of human HLA class II histocompatibility antigen gamma chain (Ii; P04232, isoform 2). Linear DNA templates were generated by PCR and transcribed into RNA using T7 or SP6 polymerase (Promega).
In vitro translation and translocation into ER microsomes
Translation reactions (20 μL) were performed in nuclease-treated rabbit reticulocyte lysate (Promega) in the presence of EasyTag EXPRESS 35S Protein Labelling Mix containing [35S] methionine (Perkin Elmer) (0.533 MBq; 30.15 TBq/mmol). Amino acids minus methionine (Promega) were added to 25 µM each, […]
equivalent volume of DMSO, and nuclease-treated ER microsomes (from stock with OD280 = 44/mL) were added to 6.5% (v/v). Lastly, 10% volume of in vitro transcribed mRNA (from 200-1000 ng/μL stocks) encoding the relevant precursor protein was added and translation reactions performed for 20 min at 30°C. Following incubation with 0.1 mM puromycin for 5 min at 30°C to ensure translational termination and ribosome release, membrane-associated fractions were isolated by centrifugation through an 80 μL high-salt cushion (0.75 M sucrose, 0.5 M KOAc, 5 mM Mg(OAc)2, 50 mM Hepes-KOH, pH 7.9) at 100,000 x g for 10 min at 4°C in a TLA100 rotor (Beckmann). Membrane pellets were suspended directly in SDS (sodium dodecyl sulphate) sample buffer (0.02% bromophenol blue, 62.5 mM, 4% (w/v) SDS, 10% (v/v) glycerol, pH 7.6, 1 M dithiothreitol) and, where indicated, treated with 1,000 U of Endoglycosidase H (New England Biolabs) for 30 min at 37°C prior to analysis. All samples were denatured for 10 min at 70°C prior to resolution by SDS-PAGE (12% or 16% polyacrylamide gels, 120 V, 120 min), gels were fixed (20% MeOH, 10% AcOH) for 5 min, dried (BioRad gel dryer) for 2 h at 65°C and, following exposure to a phosphorimaging plate for 24-72 h, radiolabelled products were visualised using a Typhoon FLA-7000 (GE Healthcare).
Quantitative analysis of Ii membrane insertion was performed using AIDA v.5.0 (Raytest Isotopenmeβgeräte) whereby the ratio of the signal intensity for the 2Gly/0Gly forms was used as a read-out to estimate efficiency of integration into the ER membrane. This value was then expressed relative to the matched DMSO control in order to derive the mean relative ER insertion from three independent experiments (n=3). Statistical significance of the effectiveness of Ipom-F analogues (RM one-way ANOVA) was determined using Tukey’s multiple comparisons test. IC50 value estimates were determined using non-linear regression to fit data to a curve of variable slope (four parameters) using the least squares fitting method in which the bottom and top plateaus of the curve were defined as 0% and 100% respectively. The differences between the estimated IC50 values for the three compounds analysed were statistically significant (****) according to the extra-sum-of-squares F test. Statistical analyses and IC50 estimates were performed using Prism 7.0d (GraphPad) with statistical significance given as n.s., non - significant and ****, P < 0.0001.
U2-OS secNLuc-ATZ Secretion and Cell Viability Assays

The test system of another series is HCT-116 cells. As to the kind of experiment: Metabolic labelling of nascent proteins in HCT116 cells. Conditions: HCT-116, 1 μM, 35S labelling. It counts as cell-based, human. On the procedure:
Metabolic Labelling Assays in HCT116 Cells
HCT116 cells were counted using an automated cell counter (BioRad TC20) immediately prior to each experiment. 3 ml of HCT116 cells at a density of 0.166x10^6 cells/mL were seeded to 6-well plates (0.5x10^6 cells/well) and then incubated at 37 °C and 5% CO 2 for 24 h. The compounds were dissolved in DMSO to make drug stocks (10 mM). The stock solutions were diluted with DMEM high glucose culture medium lacking methionine and cysteine to make a fresh working solution immediately prior to each test. Cells were washed twice and 1ml of fresh DMEM lacking methionine and cysteine was added to each well.
Subsequently, the cells were treated with 250 µl of compound solutions in a total volume of 1 ,250 µl/well.
The plate was then incubated at 37 °C and 5% CO 2 for 30 min before 100 µCi 35S-labelled methionine/cysteine was added (Expre35s35s protein labelling mix). Plates were incubated for a further 30 min, then media collected and cells harvested by scraping after four washes in ice-cold PBS. Total protein was acquired by RIPA extraction from the cell pellet, cytoplasmic fraction was acquired by partial permeabilization of the outer cell membranes with 0.15% Digitonin followed by centrifugation, secreted proteins were acquired by TCA precipitation of the media. […]

Series [2] concerns A2780 human ovarian cancer cells. Set-up: method as in PMID 15844934. The note with it: read-out: IC50, proliferation of A2780 cells; cited from earlier work.
Another series concerns MDA-MB-231. In words: AlamarBlue cytotoxicity assay, MDA-MB-231. The series is classed as cell-based, human. The note with it: MDA-MB-231, 72 h, AlamarBlue; read-out: Cytotoxicity (IC50). On the procedure:
as §1
as §2, with “nm.” for “nm. For HCT116 WT and mutant lines, cells were seeded at 1000 cells/ well in complete McCoys medium. Compounds were diluted from a DMSO stock into culture medium as described above. Cells were treated for 96 h, then viability measured with AlamarBlue, detected using the conditions described but with a BMG Fluostar Optima Microplate Reader. The percentage of viability compared to the negative control (DMSO-treated cells) was determined.”
(§3) Microplate Reader. The percentage of viability compared to the negative control (DMSO-treated cells) […]
(§4) was determined. […]

Another series relates to MCF7. In words: MTT cytotoxicity assay, MCF7. It counts as cell-based, human. Conditions: MCF7, 72 h, MTT; read-out: Cytotoxicity (IC50). The method, then: Two human breast cancer cell lines (MDA-MB-231 and MCF7) and one human breast non-tumorigenic epithelial cell line (MCF-10A) were maintained in a DMEM high glucose culture medium supplemented with 10% fetal bovine serum (FBS) and 2 mM L-glutamine. The cells were grown in a humidified atmosphere of 5% CO2 and 95% air at 37 °C . The culture medi um w as changed every 2–4 days depending on cell density. Cell cultures were passaged once a week using 0.125% trypsin-EDTA to detach the cells from culture flasks/dishes.
The human colorectal cancer cell line HCT116 was maintained in McCoy’s 5A (modified) medium supplemented with 10% fetal bovine serum (FBS). The human embryonic kidney (HEK293T and HEK293 FRT TRex) cell line was maintained in DMEM high glucose culture medium supplemented with 10% fetal bovine serum (FBS).
HepG2 cells were cultured in DMEM supplemented with 10% fetal bovine serum and 2 mM L-glutamine at 37°C under 5% CO2.
Viable cells were counted with a hemocytometer immediately before each experiment. Experiments were done in triplicate. First, 100 μL of MCF7 cells at the density of 50,000 cells/mL were seeded in a 96-well plate (5,000 cells/well), which was incubated at 37 °C and 5% CO2 atmosphere for 24 h. The compounds were dissolved in DMSO (dimethyl sulfoxide) to make drug stocks (10 mM). The stock solutions were diluted with the complete DMEM high glucose culture medium to make a series of gradient fresh working solutions right before each test. Subsequently, the cells were treated with 100 μL of the freshly made gradient working solution in a total volume of 200 μL/well for 72 h. After that, the media were discarded and 200 μL of the fresh complete medium containing 10% of MTT stock solution (5 mg/mL) was added to each well. The plate was then incubated at 37 °C and 5% CO2 for 3 h. Next, 180 μL of the medium was discarded from each well , and 180 μL of DMSO was added to each well to dissol ve formazan crystals. Absorbance of formazan was detected by a microplate reader (BioTek Synergy H1) at 570 nm with 650 nm as the reference wavelength. The percentage of viability compared to the negative control (DMSO-treated cells) was determined . GraphPad Prism 6 software was used to make a plot of %
(In general: Tetrazolium dyes change colour on reduction, which living cells bring about.)

The test system of a further series is MCF-10A. In words: AlamarBlue cytotoxicity assay, MCF-10A. The series is classed as cell-based, human. The note with it: 72 h. The method, then:
as §1
as §2, with “nm.” for “nm. For HCT116 WT and mutant lines, cells were seeded at 1000 cells/ well in complete McCoys medium. Compounds were diluted from a DMSO stock into culture medium as described above. Cells were treated for 96 h, then viability measured with AlamarBlue, detected using the conditions described but with a BMG Fluostar Optima Microplate Reader. The percentage of viability compared to the negative control (DMSO-treated cells) was determined.”
as §3, §4
(In general: Alamar Blue is a resazurin reagent that responds to reducing activity.)

In the case of `C/C=C(\C)C(=O)O[C@@H]1[C@@H](O)[C@@H]2O[C@H]3[C@H](O[C@@H](CCCCC)CCCCCCC(=O)CCC(=O)OC[C@@H](O2)[C@H]1OC(=O)CCc1ccccc1)O[C@H](C)[C@H](OC(C)=O)[C@@H]3O` [compound 14], the IC50 in the series on HCT116 is 1.87 µM. For the same compound, the “inhibition of Ii membrane insertion” value in series [1] was “far less effective inhibitor”. The “inhibition of production of secreted proteins compared with ipomoeassin F” value in the series on HCT-116 cells is “less potently”.

`C/C=C(\C)C(=O)O[C@@H]1[C@@H](O)[C@@H]2O[C@H]3[C@H](O[C@@H](CCC)CCCCC[C@H](OC(C)=O)C(=O)CCC(=O)OC[C@@H](O2)[C@H]1OC(=O)/C=C/c1ccccc1)O[C@H](C)[C@H](OC(C)=O)[C@@H]3O` [ipomoeassin D]: in series [2], the IC50 was 0.035 µM.

In the case of `C/C=C(\C)C(=O)O[C@@H]1[C@@H](O)[C@@H]2O[C@H]3[C@H](O[C@@H](CCCCC)CCCCCCC(=O)CCC(=O)OC[C@@H](O2)[C@H]1OC(=O)/C=C/c1ccc(OCc2cn(CCOCCOCCOCCNS(=O)(=O)c4ccc(-c5c6ccc(=[N+](CC)CC)cc-6oc6cc(N(CC)CC)ccc56)c(S(=O)(=O)[O-])c4)nn2)cc1)O[C@H](C)[C@H](OC(C)=O)[C@@H]3O` [compound 12], the IC50 was found to be 0.253 µM with MDA-MB-231, 0.172 µM with MCF7 and 0.134 µM with MCF-10A.
